Converted amounts (≈) assume the structure as drawn. Where a name gives a salt, the structure may show the parent alone.
Experiments:
[1] = Solubility of Atrasentan Hydrochloride Crystalline Forms in 1,4-dioxane; type: physicochemical; settings: 1,4-dioxane at 25° C. (n=3)
Procedure: The solubility (in mg/mL) of Atrasentan Hydrochloride Crystalline Forms 1, 2 and 3 in 1,4-dioxane at 25° C.

[2] = Conversion of crystalline forms of atrasentan hydrochloride to Form 2 in representative solvents at 25° C.; type: physicochemical; design: key: 1, 2 and 3 mean Atrasentan Hydrochloride Crystalline Forms 1, 2 and 3, respectively.; 1, 2 and 3 mean Atrasentan Hydrochloride Crystalline Forms 1, 2 and 3, respectively.; 1, 2 and 3 mean Atrasentan Hydrochloride Crystalline Forms 1, 2 and 3, respectively
Procedure: Examples of representative solvents that are useful for converting a particular crystalline form of atrasentan hydrochloride to Atrasentan Hydrochloride Crystalline Form 2 having substantial crystalline purity at 25° C. are shown in TABLE 2.

Q: With `CCCCN(CCCC)C(=O)CN1C[C@H](c2ccc3c(c2)OCO3)[C@@H](C(=O)O)[C@@H]1c1ccc(OC)cc1` [Form 3, (2R,3R,4S)-(+)-2-(4-methoxyphenyl)-4-(1,3-benzodioxol-5-yl)-1-(N,N-di(n-butyl)aminocarbonylmethyl)pyrrolidine-3-carboxylic acid] as the compound, how does the solubility [1] read?
A: 16.53 ± 0.22 mg/mL (≈ 32.4 mM)

Q: Which crystalline form present ([2]; 0.1M HCl, week 1, 25° C.) does the source give for `CCCCN(CCCC)C(=O)CN1C[C@H](c2ccc3c(c2)OCO3)[C@@H](C(=O)O)[C@@H]1c1ccc(OC)cc1` [atrasentan hydrochloride, (2R,3R,4S)-(+)-2-(4-methoxyphenyl)-4-(1,3-benzodioxol-5-yl)-1-(N,N-di(n-butyl)aminocarbonylmethyl)pyrrolidine-3-carboxylic acid] here?
A: 1

Q: And the crystalline form present ([2]; 0.1M HCl, week 2, 25° C.)?
A: 1

Q: And the crystalline form present ([2]; 0.1M HCl, week 4, 25° C.)?
A: 1

Q: What about the crystalline form present ([2]; 0.1M HCl, week 9, 25° C.) of the same compound?
A: 2

Q: What about the crystalline form present ([2]; 0.1M HCl, week 16, 25° C.) of the same compound?
A: 2

Q: And the crystalline form present ([2]; IPA (isopropyl alcohol), week 1, 25° C.)?
A: 1

Q: And the crystalline form present ([2]; IPA (isopropyl alcohol), week 2, 25° C.)?
A: 1

Q: And the crystalline form present ([2]; IPA (isopropyl alcohol), week 4, 25° C.)?
A: 2

Q: What about the crystalline form present ([2]; IPA (isopropyl alcohol), week 9, 25° C.) of the same compound?
A: 2

Q: And the crystalline form present ([2]; IPA (isopropyl alcohol), week 16, 25° C.)?
A: 2

Q: And the crystalline form present ([2]; PEG 400 (polyethylene glycol), week 1, 25° C.)?
A: 1

Q: And the crystalline form present ([2]; PEG 400 (polyethylene glycol), week 2, 25° C.)?
A: 1

Q: And the crystalline form present ([2]; PEG 400 (polyethylene glycol), week 4, 25° C.)?
A: 1

Q: What about the crystalline form present ([2]; PEG 400 (polyethylene glycol), week 9, 25° C.) of the same compound?
A: 1

Q: And the crystalline form present ([2]; PEG 400 (polyethylene glycol), week 16, 25° C.)?
A: 2

Q: And the crystalline form present ([2]; acetone, week 1, 25° C.)?
A: 2

Q: And the crystalline form present ([2]; acetone, week 2, 25° C.)?
A: 2

Q: What about the crystalline form present ([2]; acetone, week 4, 25° C.) of the same compound?
A: 2

Q: And the crystalline form present ([2]; acetone, week 9, 25° C.)?
A: 2

Q: What about the crystalline form present ([2]; acetone, week 16, 25° C.) of the same compound?
A: 2

Q: And the crystalline form present ([2]; ethanol, week 1, 25° C.)?
A: 2

Q: And the crystalline form present ([2]; ethanol, week 2, 25° C.)?
A: 2

Q: What about the crystalline form present ([2]; ethanol, week 4, 25° C.) of the same compound?
A: 2

Q: What about the crystalline form present ([2]; ethanol, week 9, 25° C.) of the same compound?
A: 2

Q: What about the crystalline form present ([2]; ethanol, week 16, 25° C.) of the same compound?
A: 2

Q: What about the crystalline form present ([2]; ethyl acetate, week 1, 25° C.) of the same compound?
A: 1

Q: What about the crystalline form present ([2]; ethyl acetate, week 2, 25° C.) of the same compound?
A: 1

Q: And the crystalline form present ([2]; ethyl acetate, week 4, 25° C.)?
A: 1

Q: What about the crystalline form present ([2]; ethyl acetate, week 9, 25° C.) of the same compound?
A: 2

Q: And the crystalline form present ([2]; ethyl acetate, week 16, 25° C.)?
A: 2

Q: What about the crystalline form present ([2]; nitromethane, week 1, 25° C.) of the same compound?
A: 3

Q: And the crystalline form present ([2]; nitromethane, week 2, 25° C.)?
A: 3

Q: What about the crystalline form present ([2]; nitromethane, week 4, 25° C.) of the same compound?
A: 3

Q: What about the crystalline form present ([2]; nitromethane, week 9, 25° C.) of the same compound?
A: 3

Q: And the crystalline form present ([2]; nitromethane, week 16, 25° C.)?
A: 2

— patent US20060063825A1, “Crystalline form of a drug” (priority 2004, published 2006)
